What was measured:
[1] = test system: naturally occurring pemphigus foliaceus (PF); conditions: dogs with newly diagnosed pemphigus foliaceus; cited from earlier work
[2] = test system: patients with moderate-to-severe CSU; assay: Phase 2 CSU study: safety (TEAEs, SAEs, AESIs), double-blind period
other TEC family members = conditions: cited from earlier work
CYP3A = conditions: cited from earlier work
[3] = 400 mg BID (N = 41), double-blind period, safety population

CC(C)(C=C(C#N)C(=O)N1CCC[C@@H](n2nc(-c3ccc(Oc4ccccc4)cc3F)c3c(N)ncnc32)C1)N1CCN(C2COC2)CC1 [rilzabrutinib, (R)-2-[3-[4-amino-3-(2-fluoro-4-phenoxy-phenyl)pyrazolo[3,4-d]pyrimidin-1-yl]piperidine-1-carbonyl]-4-methyl-4-[4-(oxetan-3-yl)piperazin-1-yl]pent-2-enenitrile]
cases with disease controlled without corticosteroid [1]: 4 of 4
Participants with any TEAE [2, 3]: 30 (73.2) n (%)
Participants with any TEAE leading to death [2, 3]: 0 n (%)
Participants with any TEAE leading to death ([2]; 400 mg QPM (N = 38), double-blind period, safety population): 0 n (%)
Participants with any TEAE leading to death ([2]; 400 mg TID (N = 41), double-blind period, safety population): 0 n (%)
patients with ALT increases>3×ULN (AESI) ([2]; BID cohort): 1 patient
patients with ALT increases>3×ULN (AESI) ([2]; QPM cohort): 2 patients
patients with ALT increases>3×ULN (AESI) ([2]; TID cohort): 1 patient
drug-induced liver injuries (including Hy's law) ([2]; double-blind period): no drug-induced liver injuries
severe/serious infections or opportunistic infections ([2]; double-blind period): no severe/serious infections or opportunistic infections
deaths ([2]; throughout the study): no deaths
treatment-emergent SAEs ([2]; throughout the study, same incidence across all rilzabrutinib dosing groups): 3
binding over time (other TEC family members): decayed rapidly over time
CYP3A inhibition (CYP3A): mild inhibitor

— US20260256792A1, “TREATMENT OF CHRONIC SPONTANEOUS URTICARIA BY ADMINISTERING (R)-2-[3-[4-AMINO-3-(2-FLUORO-4-PHENOXY-PHENYL)PYRAZOLO[3,4-D]PYRIMIDIN-1-YL]PIPERIDINE-1-CARBONYL]-4-METHYL-4-[4-(OXETAN-3-YL)PIPERAZIN-1-YL]PENT-2-ENENITRILE” (priority 2023, published 2026)
